Earlier results in US10105355B2 (BASF SE, priority 2014, dated 2018).
Read-outs that look alike come from different tables or passages of the source.

CS(=O)(=O)c1ccc(C(=O)Nc2ccc(Cl)c(-c3ccccn3)c2)c(Cl)c1 [Vismodegib, 2-Chloro-N-(4-chloro-3-pyridin-2-ylphenyl)-4-methylsulfonylbenzamide]
estimated elimination half-life (t½) (after a single dose treatment): 288 h | estimated elimination half-life (t½) (after continuous once-daily dosing): 96 h | exposure linearity (single doses higher than 270 mg): not linear
